Results: patent US12036222B2, “Methods of treating cancers overexpressing CARM1 with EZH2 inhibitors and a PARP inhibitor” (The Wistar Institut of Anatomy and Biology, priority 2018, dated 2024)

Legend:
[1] = system: orthotopically-transplanted CARM1-expressing tumors; test: Intrabursal orthotopic xenograft model, CARM1-expressing A1847 cells; assay type: in vivo, NSG mice
Procedure: The protocols were approved by the Institutional Animal Care and Use Committee (IACUC). For in vivo experiments, the sample size of 5 mice per group was determined based on the data shown from in vitro experiments. Intrabursal orthotopic xenograft was performed as described in Bitler, et al. Nature Medicine (2015) 21:231-8 and Bitler et al. Cancer Research (2011) 71:6184-94. Briefly, 1×10^6 A1847 parental or A1847 CARM1 knockout cells were unilaterally injected into the ovarian bursa of 6-8-week old female immunocompromised NSG mice (n=5 per group). One week after injection the mice were randomized into two groups and treated with vehicle control (20% captisol) or GSK126 (50 mg/kg daily) for three weeks. At the end of the experiments, tumors were surgically dissected and tumor burden was calculated based on tumor weight. For survival experiments, after stopping the treatment, the mice were followed for mortality or when the tumor burden reached 10% of body weight as determined by The Wistar Institute IACUC guideline.
EZH2 inhibitors, such as GSK126, are used safely in clinical trials for hematopoietic malignancies (Ribrag et al. Eur J Cancer (2014) 50:197). To determine the effects of EZH2 inhibition in vivo on the growth of CARM1-expressing ovarian tumors, two xenograft models were utilized. […]

BAF155Me = test: Immunoblot for BAF155Me levels; assay type: cell-based, human; conditions: 10 μM GSK126, 7 days
Procedure: FIG. 53 illustrates that the indicated CARM1-high cells were infected with the indicated shCARM1 or controls. Expression of CARM1 and BAF155Me levels and loading control (p-actin) was determined by immunoblot. FIG. 54 illustrates that the indicated cells were treated with 10 μM GSK126 or vehicle control for 7 days. Expression of BAF155 and a loading control (0-actin) was determined by immunoblot.

TIMP3 = test: qRT-PCR of BAF155Me target gene in cells; assay type: cell-based, human; conditions: parental and CARM1 knockout A1847 cells, 10 μM GSK126
Procedure: FIG. 57 illustrates the relative mRNA expression of BAF155Me target gene TIMP3, which was determined by qRT-PCR. Parental control and CARM1 knockout A1847 cells were treated with 10 μM GSK126 or vehicle controls. *p<0.001. Mean of three independent experiments with SEM.
RNA was isolated by RNeasy Mini Kit (Qiagen). mRNA relative expression for DAB2, DLC1, and PMAIP was determined using SYBR green 1-step iScript (Bio-Rad) with a Life Technologies QuantStudio 3. The primers were: 5′-[…]-3′ (DAB2 forward (SEQ ID NO: 2)) and 5′-[…]-3′ (DAB2 reverse (SEQ ID NO: 3)); 5′-[…]-3′ (DLC1 forward (SEQ ID NO: 4)) and 5′-[…]-3′ (DLC1 reverse (SEQ ID NO: 5)); 5′-[…]-3′ (NOXA forward (SEQ ID NO: 6)) and 5′-[…]-3′ (NOXA reverse (SEQ ID NO: 7)); and 5′-[…]-3′ (TIMP3 forward (SEQ ID NO: 8)) and 5′-[…]-3′ (TIMP3 reverse (SEQ ID NO: 9)).

CARM1-depleted cells = test: Sensitization to Olaparib in CARM1-depleted cells; assay type: cell-based; conditions: data not shown
Text: Therefore, CARM1-expressing EOC can be treated and ultimately eradicated by combinatory targeting EZH2 and PARP using clinically applicable small molecule inhibitors.

CC[C@H](C)n1cc(C)c2c(C(=O)NCc3c(C)cc(C)[nH]c3=O)cc(-c3ccc(N4CCNCC4)nc3)cc21 [GSK126, (S)-1-(sec-butyl)-N-((4,6-dimethyl-2-oxo-1,2-dihydropyridin-3-yl)methyl)-3-methyl-6-(6-(piperazin-1-yl)pyridin-3-yl)-1H-indole-4-carboxamide]
growth of CARM1-expressing tumors ([1]; 50 mg/kg daily i.p., three weeks): significantly inhibited | survival of tumor bearing mice ([1]; followed after stopping treatment, vs controls): significantly improved the survival | BAF155Me levels (BAF155Me): did not affect BAF155Me levels | expression of BAF155Me target gene TIMP3 (TIMP3): downregulated by CARM KO but not by EZH2 inhibitor GSK126 | sensitization to Olaparib (CARM1-depleted cells): did not promote sensitization to Olaparib
